Where a SMILES comes first, the peptide text is derived from it. Bridges are numbered along the chain shown (N, C = ends). [ ]: non-standard residue; d: D form. The star is where a group is joined. hPhe(3-Cl-4-CF3) = N[C@@H](CCc1ccc(C(F)(F)F)c(Cl)c1)C(=O)O; NEtPhe(4-Me) = CCN[C@@H](Cc1ccc(C)cc1)C(=O)O; NMeGly(cPent) = CN[C@H](C(=O)O)C1CCCC1; Hyp = O=C(O)[C@@H]1C[C@@H](O)CN1; NMeD = CN[C@@H](CC(=O)O)C(=O)O; NMeL = CN[C@@H](CC(C)C)C(=O)O; Morpholide = C1CN(*)CCO1; Ac5c = NC1(C(=O)O)CCCC1; X51 = C1CCC(*)OC1; Sar = CNCC(=O)O
Assays:
[1] = target: GDP-bound NRAS wild-type protein (Homo sapiens, UniProt P01111); assay: Binding to NRAS by surface plasmon resonance (SPR), Single Cycle Kinetics; conditions: for NRAS/KRAS (ratio of KD value with respect to GDP-bound NRAS wild-type protein to KD value with respect to KRAS): SPR KD ratio NRAS/KRAS, class symbols
Sequence of GDP-bound NRAS wild-type protein (P01111 whole entry): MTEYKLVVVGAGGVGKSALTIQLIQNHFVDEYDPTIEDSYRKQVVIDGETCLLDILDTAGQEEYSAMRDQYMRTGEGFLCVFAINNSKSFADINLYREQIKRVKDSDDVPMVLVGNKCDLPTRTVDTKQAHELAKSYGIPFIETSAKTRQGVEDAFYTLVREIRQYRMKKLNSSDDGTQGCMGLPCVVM

[2] = target: GDP-bound HRAS wild-type protein (Homo sapiens, UniProt P01112); assay: Binding to HRAS by surface plasmon resonance (SPR), Single Cycle Kinetics; conditions: for HRAS/KRAS (ratio of KD value with respect to GDP-bound HRAS wild-type protein to KD value with respect to KRAS): SPR KD ratio HRAS/KRAS, class symbols
Sequence of GDP-bound HRAS wild-type protein (P01112 whole entry): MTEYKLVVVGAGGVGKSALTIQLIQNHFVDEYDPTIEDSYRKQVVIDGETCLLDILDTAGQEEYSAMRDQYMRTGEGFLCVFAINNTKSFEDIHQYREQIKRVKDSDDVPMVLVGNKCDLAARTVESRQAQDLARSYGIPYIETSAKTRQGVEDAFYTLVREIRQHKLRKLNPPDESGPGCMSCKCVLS

[3] = SPR, GDP-bound NRAS wild-type protein vs GDP-bound KRAS wild-type protein
[4] = SPR, GDP-bound HRAS wild-type protein vs GDP-bound KRAS wild-type protein

Row | SMILES | NRAS/KRAS (ratio of KD value with respect to GDP-bound NRAS wild-type protein to KD value with respect to KRAS) [1] | HRAS/KRAS (ratio of KD value with respect to GDP-bound HRAS wild-type protein to KD value with respect to KRAS) [2] | NRAS/KRAS (ratio of KD value for NRAS to KD value for KRAS) [1, 3] | HRAS/KRAS (ratio of KD value for HRAS to KD value for KRAS) [2, 4] | also measured
1 | CCC[C@H]1C(=O)N[C@@H]([C@@H](C)CC)C(=O)N(C2CC2)CC(=O)N(C)[C@H]2C/C=C\CCN(C2=O)[C@@H](Cc2ccc(C)cc2)C(=O)N(C)CC(=O)N[C@@H](CCc2ccc(C(F)(F)F)c(C3CC3)c2)C(=O)N2C[C@H](OCC)C[C@H]2C(=O)NC2(CC(C)(C)C2)C(=O)N(C)[C@@H](C2CCCC2)C(=O)N(C)[C@H](C(=O)N(C)C)CC(=O)N1C [PP2881] | A (a compound having 10 or more and less than 20 is denoted as A) | A (a compound having 10 or more and less than 20 is denoted as A) |  |  | 
2 | CCOC[C@H]1C(=O)N[C@@H]([C@@H](C)CC)C(=O)N(C)CC(=O)N(C)[C@H]2C/C=C\CCN(C2=O)[C@@H](Cc2ccc(C)c(F)c2)C(=O)N(C)CC(=O)N[C@@H](CCc2ccc(C(F)(F)F)c(OC)c2)C(=O)N2C[C@@H](C)C[C@H]2C(=O)NC2(CC(C)(C)C2)C(=O)N(C)[C@@H](C2CCCC2)C(=O)N(C)[C@H](C(=O)N(C)CC)CC(=O)N1C [PP2698] | A (a compound having 10 or more and less than 20 is denoted as A) | A (a compound having 10 or more and less than 20 is denoted as A) |  |  | 
3 | CCCN(C)C(=O)[C@@H]1CC(=O)N(C)[C@@H](C2CC2)C(=O)N[C@@H]([C@@H](C)CC)C(=O)N(C)CC(=O)N(C)[C@H]2C/C=C\CCN(C2=O)[C@@H](Cc2ccc(C(F)(F)F)cc2)C(=O)N(C)CC(=O)N[C@@H](CCc2cc(F)c(C(F)(F)F)c(F)c2)C(=O)N2C[C@H](OCC)C[C@H]2C(=O)NC2(CC(C)(C)C2)C(=O)N(C)[C@@H](C2CCCC2)C(=O)N1C [PP2037] |  |  | A (a compound having 10 or more and less than 20 is denoted as A) | A (a compound having 10 or more and less than 20 is denoted as A) | 
4 | CCO[C@@H]1C[C@H]2C(=O)NC3(CC(C)(C)C3)C(=O)N(C)[C@@H](C3CCCC3)C(=O)N(C)[C@H](C(=O)N(C)C)CC(=O)N(C)[C@@H](CC(C)C)C(=O)N[C@@H]([C@@H](C)CC)C(=O)N(C)CC(=O)N(C)[C@H]3C/C=C\CCN(C3=O)[C@@H](Cc3ccc(C)cc3F)C(=O)N(C)CC(=O)N[C@@H](CCc3ccc(C(F)(F)F)c(OC)c3)C(=O)N2C1 [PP2688] | A (a compound having 10 or more and less than 20 is denoted as A) | B (a compound having 3 or more and less than 10 is denoted as B) |  |  | 
5 | CC[C@H](C)[C@@H]1NC(=O)[C@H](CC(C)C)N(C)C(=O)C[C@@H](C(=O)N2CCOCC2)N(C)C(=O)[C@H](C2CCCC2)N(C)C(=O)C2(CCCC2)NC(=O)[C@@H]2CCCN2C(=O)[C@H](CCc2ccc(C(F)(F)F)c(Cl)c2)NC(=O)CN(C)C(=O)[C@H](Cc2ccc(C(F)(F)F)cc2)N2CCCCC[C@@H](C2=O)N(C)C(=O)CN(C)C1=O (stereo in doubt) [PP0319] |  |  | B (a compound having 3 or more and less than 10 is denoted as B) | B (a compound having 3 or more and less than 10 is denoted as B) | 
6 | C=CC[C@@H]1NC(=O)[C@H](CC2CC2)N(C)C(=O)C[C@@H](C(=O)N(C)CC=C)N(C)C(=O)[C@H](C2CCCC2)N(C)C(=O)C2(CCC2)NC(=O)[C@@H]2C[C@@H](OCC)CN2C(=O)[C@H](CCc2cc(F)c(C(F)(F)F)c(F)c2)NC(=O)CN(C)C(=O)[C@H](Cc2ccc(C(F)(F)F)cc2)N2CC/C=C\C[C@@H](C2=O)N(C)C(=O)CN(C)C1=O [PP1557] |  |  |  |  | NRAS/KRAS (ratio of KD value for NRAS to KD value for KRAS) ([1]; SPR, GDP-bound NRAS wild-type protein vs GDP-bound KRAS wild-type protein, KD ratio class): A (a compound having 10 or more and less than 20 is denoted as A); HRAS/KRAS (ratio of KD value for HRAS to KD value for KRAS) ([2]; SPR, GDP-bound HRAS wild-type protein vs GDP-bound KRAS wild-type protein, KD ratio class): A (a compound having 10 or more and less than 20 is denoted as A)
7 | CCC(CC)[C@H]1C(=O)N(C)[C@H](C(=O)N(C)C)CC(=O)N(C)[C@@H](COC)C(=O)N[C@@H]([C@@H](C)CC)C(=O)N(C)CC(=O)N(C)[C@H]2C/C=C\CCN(C2=O)[C@@H](Cc2ccc(C)cc2)C(=O)N(C)CC(=O)N[C@@H](CCc2ccc(C(F)(F)F)c(Cl)c2)C(=O)N2CC3(CC3)C[C@H]2C(=O)NC2(CC(C)(C)C2)C(=O)N1C [PP2967] | AA (a compound having 20 or more is denoted as AA) | A (a compound having 10 or more and less than 20 is denoted as A) |  |  | 
8 | CCO[C@@H]1C[C@H]2C(=O)NC3(CCCC3)C(=O)N(C)[C@@H](C3CCCC3)C(=O)N(C)[C@H](C(=O)N(C)C)CC(=O)N(C)[C@@H](CC(C)C)C(=O)N[C@@H]([C@@H](C)CC)C(=O)N(C)CC(=O)N(C)[C@H]3C/C=C\CCN(C3=O)[C@@H](Cc3ccc(C(F)(F)F)cc3)C(=O)N(C)CC(=O)N[C@@H](CCc3cc(F)c(C(F)(F)F)c(F)c3)C(=O)N2C1 [PP1105, (2S,8S,12R,14S,20S,23S,27S,30S,36S,38Z)-20-cyclopentyl-8-[2-[3,5-difluoro-4-(trifluoromethyl)phenyl]ethyl]-12-ethoxy-27-isobutyl-N,N,4,19,22,26,32,35-octamethyl-30-[(1S)-1-methylpropyl]-3,6,9,15,18,21,25,28,31,34,42-undecaoxo-2-[[4-(trifluoromethyl)phenyl]methyl]spiro[1,4,7,10,16,19,22,26,29,32,35-undecazatricyclo[34.5.1.0^10,14]dotetracont-38-ene-17,1′-cyclopentane]-23-carboxamide] |  |  | A (a compound having 10 or more and less than 20 is denoted as A) | A (a compound having 10 or more and less than 20 is denoted as A) | 
9 | CC[C@H](C)[C@@H]1NC(=O)[C@H](CC(C)C)N(C)C(=O)C[C@@H](C(=O)N2CCOCC2)N(C)C(=O)[C@H](C2CCCC2)N(C)C(=O)C2(CCCC2)NC(=O)[C@@H]2C[C@@H](OC3CCCCO3)CN2C(=O)[C@H](CCc2ccc(C(F)(F)F)c(Cl)c2)NC(=O)CN(C)C(=O)[C@H](Cc2ccc(C)cc2)N(CC)C(=O)CN(C)C(=O)CN(C)C1=O (stereo partly shown) [PP0068] ([NMeL]I[Sar][Sar][NEtPhe(4-Me)][Sar][hPhe(3-Cl-4-CF3)][Hyp](X51)[Ac5c][NMeGly(cPent)][NMeD]-Morpholide; lactam N-11) |  |  | C (A compound having a KD ratio of 0.1 or more and less than 3 is denoted as C) | C (A compound having a KD ratio of 0.1 or more and less than 3 is denoted as C) | 
10 | CCO[C@@H]1C[C@H]2C(=O)NC3(CC(C)(C)C3)C(=O)N(C)[C@@H](C(CC)CC)C(=O)N(C)[C@H](C(=O)N(C)C)CC(=O)N(C)[C@H]3CC/C=C/c4ccc(cc4)C[C@@H](C(=O)N(C)CC(=O)N[C@@H](CCc4cc(F)c(C(F)(F)F)c(F)c4)C(=O)N2C1)N1CC/C=C\C[C@@H](C1=O)N(C)C(=O)CN(C)C(=O)[C@H]([C@@H](C)CC)NC3=O [PP2586] | A (a compound having 10 or more and less than 20 is denoted as A) | B (a compound having 3 or more and less than 10 is denoted as B) |  |  | 
11 | CCO[C@@H]1C[C@H]2C(=O)NC3(CCC3)C(=O)N(C)[C@@H](C3CCCC3)C(=O)N(C)[C@H](C(=O)N3C4CCC3COC4)CC(=O)N(C)[C@@H](CC)C(=O)N[C@@H]([C@@H](C)CC)C(=O)N(C)CC(=O)N(C)[C@H]3C/C=C\CCN(C3=O)[C@@H](Cc3ccc(C(F)(F)F)cc3)C(=O)N(C)CC(=O)N[C@@H](CCc3cc(F)c(C(F)(F)F)c(F)c3)C(=O)N2C1 [PP1093] |  |  | AA (a compound having 20 or more is denoted as AA) | A (a compound having 10 or more and less than 20 is denoted as A) | 
12 | CCC[C@H]1C(=O)N[C@@H]([C@@H](C)CC)C(=O)N(C2CC2)CC(=O)N(C)[C@H]2C/C=C\CCN(C2=O)[C@@H](Cc2ccc(C)cc2)C(=O)N(C)CC(=O)N[C@@H](CCc2ccc(C3CC3)c(Cl)c2)C(=O)N2C[C@H](OCC)C[C@H]2C(=O)NC2(CC(C)(C)C2)C(=O)N(C)[C@@H](C2CCCC2)C(=O)N(C)[C@H](C(=O)N(C)C)CC(=O)N1C [PP2885] | A (a compound having 10 or more and less than 20 is denoted as A) | A (a compound having 10 or more and less than 20 is denoted as A) |  |  | 
13 | CCOC[C@H]1C(=O)N[C@@H]([C@@H](C)CC)C(=O)N(C)CC(=O)N(C)[C@H]2C/C=C\CCN(C2=O)[C@@H](Cc2ccc(OC)cc2)C(=O)N(C)CC(=O)N[C@@H](CCc2ccc(C(F)(F)F)c(OC)c2)C(=O)N2C[C@@H](C)C[C@H]2C(=O)NC2(CC(C)(C)C2)C(=O)N(C)[C@@H](C2CCCC2)C(=O)N(C)[C@H](C(=O)N(C)CC)CC(=O)N1C [PP2702] | A (a compound having 10 or more and less than 20 is denoted as A) | B (a compound having 3 or more and less than 10 is denoted as B) |  |  | 
14 | CC[C@H](C)[C@@H]1NC(=O)[C@H](CC(C)C)N(C)C(=O)C[C@@H](C(=O)N(C)C)N(C)C(=O)[C@H](C2CCCC2)N(C)C(=O)C2(CCCC2)NC(=O)[C@@H]2CCCN2C(=O)[C@H](CCc2ccc(C(F)(F)F)c(Cl)c2)NC(=O)CN(C)C(=O)[C@H](Cc2ccc(C(F)(F)F)cc2)N2CC=CCOC[C@H](C2=O)N(C)C(=O)CN(C)C1=O [PP0628] |  |  |  |  | NRAS/KRAS (ratio of KD value with respect to NRAS to KD value with respect to KRAS) [1, 3]: C (A compound having a KD ratio of 0.1 or more and less than 3 is denoted as C); HRAS/KRAS (ratio of KD value with respect to HRAS to KD value with respect to KRAS) [2, 4]: C (A compound having a KD ratio of 0.1 or more and less than 3 is denoted as C)
